The values that follow come from ChEMBL document CHEMBL3046750, “Synthesis, characterization and antimicrobial activity of novel ethyl 1-(N-substituted)-5-phenyl-1H-pyrazole-4-carboxylate derivatives” (2012).

Assay [1] concerns Escherichia coli. As to the kind of experiment: Antibacterial activity against Escherichia coli after 16 hr by serial dilution method. It is filed as functional.
The test system of assay [2] is Pseudomonas aeruginosa. As to the kind of experiment: Antibacterial activity against Pseudomonas aeruginosa after 16 hr by serial dilution method. It is filed as functional.
In assay [3] the test system is Bacillus subtilis. As to the kind of experiment: Antibacterial activity against Bacillus subtilis after 16 hr by serial dilution method. It is filed as functional.
The test system of assay [4] is Staphylococcus aureus. As to the kind of experiment: Antibacterial activity against Staphylococcus aureus after 16 hr by serial dilution method. It is filed as functional.
Assay [5] relates to Bacillus subtilis. As to the kind of experiment: Antibacterial activity against Bacillus subtilis at 1.6125 ug/ml after 16 hr by serial dilution method. It counts as functional, organism-based.
In assay [6] the test system is Staphylococcus aureus. As to the kind of experiment: Antibacterial activity against Staphylococcus aureus at 1.6125 ug/ml after 16 hr by serial dilution method. It counts as functional, organism-based.
In assay [7] the test system is Escherichia coli. As to the kind of experiment: Antibacterial activity against Escherichia coli at 1.6125 ug/ml after 16 hr by serial dilution method. It counts as functional, organism-based.
Assay [8] concerns Pseudomonas aeruginosa. As to the kind of experiment: Antibacterial activity against Pseudomonas aeruginosa at 1.6125 ug/ml after 16 hr by serial dilution method. It counts as functional, organism-based.

The structures appear in SMILES notation. ≈ marks a conversion by molar mass, not a printed value. Calls of active or inactive are those of the source. The rule behind the calls is not given here.

What is called MIC is the lowest concentration that inhibits growth of the organism. Low readings indicate greater potency, high ones weaker potency. As to `CCOC(=O)c1cnn(C2CCNCC2)c1-c1ccccc1`, the MIC in assay [1] came to 1.61 µg/mL (≈ 5.39 µM); in assay [2] it was 1.61 µg/mL (≈ 5.39 µM); in assay [3], 3.12 µg/mL (≈ 10.4 µM); in assay [4], 3.12 µg/mL (≈ 10.4 µM).
Regarding `CCOC(=O)c1cnn(-c2ccccc2Br)c1-c1ccccc1`, the MIC in assay [1] was 1.61 µg/mL (≈ 4.34 µM); in assay [2], 1.61 µg/mL (≈ 4.34 µM); in assay [3] it was 1.61 µg/mL (≈ 4.34 µM); in assay [4], 3.12 µg/mL (≈ 8.42 µM).
`CCOC(=O)c1cnn(-c2ccc(C)cc2)c1-c1ccccc1`: the result in assay [5], in assay [6], in assay [7] and in assay [8] was inactive.
Regarding `CCOC(=O)c1cnn(C(C)(C)C)c1-c1ccccc1`, the result in assay [5], in assay [6], in assay [7] and in assay [8] was inactive.
For `CCOC(=O)c1cnn(-c2ccc(C(=O)O)cc2)c1-c1ccccc1`, the outcome in assay [5] and in assay [7] was inactive. For the same compound, the results for the minimal inhibitory concentration (MIC) in assay [2] and in assay [4] were 25 µg/mL (≈ 74.3 µM) and 50 µg/mL (≈ 149 µM), respectively.
On to `CCOC(=O)c1cnn(-c2ccc(C(C)(C)C)cc2)c1-c1ccccc1`, for which the outcome in assay [6] and in assay [7] was inactive. Besides, the MIC in assay [2] and in assay [3] was 12.5 µg/mL (≈ 35.9 µM) in each case.
On to `CCOC(=O)c1cnn(-c2ccc3ccccc3n2)c1-c1ccccc1`, for which the minimum inhibitory concentration (MIC) in assay [1] was found to be 6.25 µg/mL (≈ 18.2 µM); in assay [2] it was 3.12 µg/mL (≈ 9.1 µM); in assay [3], 3.12 µg/mL (≈ 9.1 µM); in assay [4] it was 3.12 µg/mL (≈ 9.1 µM).
`CCOC(=O)c1cnn(C)c1-c1ccccc1`: the outcome in assay [5], in assay [6], in assay [7] and in assay [8] was inactive.
`CCOC(=O)c1cnn(-c2ccc(Cl)cc2Cl)c1-c1ccccc1`: the minimal inhibitory concentration (MIC) was 1.61 µg/mL (≈ 4.47 µM) in assay [1], 3.25 µg/mL (≈ 9 µM) in assay [2], 1.61 µg/mL (≈ 4.47 µM) in assay [3] and 1.61 µg/mL (≈ 4.47 µM) in assay [4].
Take `CCOC(=O)c1cnn(-c2ccc(C(F)(F)F)cc2)c1-c1ccccc1`: the MIC was 1.61 µg/mL (≈ 4.48 µM) in assay [1], 1.61 µg/mL (≈ 4.48 µM) in assay [2], 1.61 µg/mL (≈ 4.48 µM) in assay [3] and 3.12 µg/mL (≈ 8.67 µM) in assay [4].
Regarding `CCOC(=O)c1cnn(C2CCCCC2)c1-c1ccccc1`, the MIC in assay [1] worked out at 12.5 µg/mL (≈ 41.9 µM); in assay [2], 6.25 µg/mL (≈ 20.9 µM); in assay [3], 6.25 µg/mL (≈ 20.9 µM); in assay [4], 6.25 µg/mL (≈ 20.9 µM).
As to `CO/N=C(\C(=O)N[C@@H]1C(=O)N2C(C(=O)O)=C(CSc3nc(=O)c(O)nn3C)CS[C@H]12)c1csc(N)n1` [CEFTRIAXONE], the minimal inhibitory concentration (MIC) in assay [1] worked out at 1.61 µg/mL (≈ 2.91 µM); in assay [2] it was 1.61 µg/mL (≈ 2.91 µM); in assay [3] it was 1.61 µg/mL (≈ 2.91 µM); in assay [4], 3.12 µg/mL (≈ 5.63 µM).
For the compound `CCOC(=O)c1cnn(-c2ccc(F)cc2)c1-c1ccccc1`, the minimal inhibitory concentration (MIC) in assay [1] was 1.61 µg/mL (≈ 5.2 µM); in assay [2], 1.61 µg/mL (≈ 5.2 µM); in assay [3], 3.12 µg/mL (≈ 10.1 µM); in assay [4], 6.25 µg/mL (≈ 20.1 µM).
